Assay: Inhibition of recombinant human IL-17A/IL-17AR protein-protein interaction using TMB substrate compound added on IL17A precoated plate and followed by IL-17AR addition by ELISA

SMILES	IC50 [nM]
CO[C@]1(C)C[C@H](O[C@H]2[C@H](C)[C@@H](O[C@@H]3O[C@H](C)C[C@H](N(C)C)[C@H]3O)[C@](C)(O)C[C@@H](C)CN(C)C(=O)[C@H](Cc3ccc(NC(=O)[C@H](Cc4ccccc4Cl)NC(=O)Cc4ccccc4)cc3)NC(=O)[C@@H](C(C)C)NC(=O)[C@@H]2C)O[C@@H](C)[C@@H]1O	1400
CO[C@]1(C)C[C@H](O[C@H]2[C@H](C)[C@@H](O[C@@H]3O[C@H](C)C[C@H](N(C)C)[C@H]3O)[C@](C)(O)C[C@@H](C)CN(C)C(=O)C[C@@H](Cc3ccc(NC(=O)[C@H](Cc4ccccc4Cl)NC(=O)Cc4ccccc4)cc3)NC(=O)C[C@H](C(C)C)NC(=O)[C@@H]2C)O[C@@H](C)[C@@H]1O	> 30000
CO[C@]1(C)C[C@H](O[C@H]2[C@H](C)[C@@H](O[C@@H]3O[C@H](C)C[C@H](N(C)C)[C@H]3O)[C@](C)(O)C[C@@H](C)CN(C)C(=O)C[C@@H](Cc3ccc(NC(=O)[C@H](Cc4ccccc4Cl)NC(=O)C(C)c4ccccc4)cc3)NC(=O)[C@H](C(C)C)NC(=O)[C@@H]2C)O[C@@H](C)[C@@H]1O (some centres not stated)	246
CO[C@]1(C)C[C@H](O[C@H]2[C@H](C)[C@@H](O[C@@H]3O[C@H](C)C[C@H](N(C)C)[C@H]3O)[C@](C)(O)C[C@@H](C)CN(C)C(=O)C[C@@H](Cc3ccc(NC(=O)[C@H](Cc4ccccc4Cl)NC(=O)C(O)c4ccccc4)cc3)NC(=O)[C@H](C(C)C)NC(=O)[C@@H]2C)O[C@@H](C)[C@@H]1O (some centres not stated)	1190
CO[C@]1(C)C[C@H](O[C@H]2[C@H](C)[C@@H](O[C@@H]3O[C@H](C)C[C@H](N(C)C)[C@H]3O)[C@](C)(O)C[C@@H](C)CN(C)C(=O)C[C@@H](Cc3ccc(NC(=O)[C@H](Cc4ccccc4Cl)NC(=O)Cc4ccccc4)cc3)NC(=O)[C@H](C(C)(C)C)NC(=O)[C@@H]2C)O[C@@H](C)[C@@H]1O	1600
CO[C@]1(C)C[C@H](O[C@H]2[C@H](C)[C@@H](O[C@@H]3O[C@H](C)C[C@H](N(C)C)[C@H]3O)[C@](C)(O)C[C@@H](C)CN(C)C(=O)C[C@@H](Cc3ccc(NC(=O)[C@H](Cc4ccccc4Cl)NC(=O)NCc4ccc(F)cc4)cc3)NC(=O)[C@H](C(C)C)NC(=O)[C@@H]2C)O[C@@H](C)[C@@H]1O	179
CO[C@]1(C)C[C@H](O[C@H]2[C@H](C)[C@@H](O[C@@H]3O[C@H](C)C[C@H](N(C)C)[C@H]3O)[C@](C)(O)C[C@@H](C)CN(C)C(=O)[C@@H](Cc3ccc(NC(=O)[C@H](Cc4ccccc4Cl)NC(=O)Cc4ccccc4)cc3)NC(=O)C[C@@H](C(C)C)NC(=O)[C@@H]2C)O[C@@H](C)[C@@H]1O	> 30000
CO[C@]1(C)C[C@H](O[C@H]2[C@H](C)[C@@H](O[C@@H]3O[C@H](C)C[C@H](N(C)C)[C@H]3O)[C@](C)(O)C[C@@H](C)CN(C)C(=O)C[C@@H](Cc3ccc(NC(=O)[C@H](Cc4ccccc4Cl)NC(=O)Cc4ccccc4)cc3)NC(=O)[C@@H](C(C)C)CNC(=O)[C@@H]2C)O[C@@H](C)[C@@H]1O	24800
CO[C@]1(C)C[C@H](O[C@H]2[C@H](C)[C@@H](O[C@@H]3O[C@H](C)C[C@H](N(C)C)[C@H]3O)[C@](C)(O)C[C@@H](C)CN(C)C(=O)C[C@@H](Cc3ccc(NC(=O)[C@H](Cc4ccccc4Cl)NC(=O)Cc4ccccc4)cc3)NC(=O)[C@@H]3CCCN3C(=O)[C@@H]2C)O[C@@H](C)[C@@H]1O	> 30000
CO[C@]1(C)C[C@H](O[C@H]2[C@H](C)[C@@H](O[C@@H]3O[C@H](C)C[C@H](N(C)C)[C@H]3O)[C@](C)(O)C[C@@H](C)CN(C)C(=O)C[C@@H](Cc3ccc(NC(=O)[C@H](Cc4ccccc4Cl)NC(=O)Cc4ccccc4)cc3)NC(=O)[C@H](C3CC3)NC(=O)[C@@H]2C)O[C@@H](C)[C@@H]1O	2620
CO[C@]1(C)C[C@H](O[C@H]2[C@H](C)[C@@H](O[C@@H]3O[C@H](C)C[C@H](N(C)C)[C@H]3O)[C@](C)(O)C[C@@H](C)CN(C)C(=O)C[C@@H](Cc3ccc(NC(=O)[C@H](Cc4ccccc4Cl)NS(=O)(=O)Cc4ccccc4)cc3)NC(=O)[C@H](C(C)C)NC(=O)[C@@H]2C)O[C@@H](C)[C@@H]1O	2560

Other lines, results leading:

IC50 [nM]	SMILES
256	CO[C@]1(C)C[C@H](O[C@H]2[C@H](C)[C@@H](O[C@@H]3O[C@H](C)C[C@H](N(C)C)[C@H]3O)[C@](C)(O)C[C@@H](C)CN(C)C(=O)[C@@H](C(C)C)NC(=O)C[C@H](Cc3ccc(NC(=O)[C@H](Cc4ccccc4Cl)NC(=O)Cc4ccccc4)cc3)NC(=O)[C@@H]2C)O[C@@H](C)[C@@H]1O
243	CO[C@]1(C)C[C@H](O[C@H]2[C@H](C)[C@@H](O[C@@H]3O[C@H](C)C[C@H](N(C)C)[C@H]3O)[C@](C)(O)C[C@@H](C)CN(C)C(=O)C[C@@H](Cc3ccc(NC(=O)[C@H](Cc4ccccc4Cl)NC(=O)Cc4ccc(C)cc4)cc3)NC(=O)[C@H](C(C)C)NC(=O)[C@@H]2C)O[C@@H](C)[C@@H]1O
211	CO[C@]1(C)C[C@H](O[C@H]2[C@H](C)[C@@H](O[C@@H]3O[C@H](C)C[C@H](N(C)C)[C@H]3O)[C@](C)(O)C[C@@H](C)CN(C)C(=O)C[C@@H](Cc3ccc(NC(=O)[C@H](Cc4ccc(Cl)cc4Cl)NC(=O)Cc4ccccc4)cc3)NC(=O)[C@H](C(C)C)NC(=O)[C@@H]2C)O[C@@H](C)[C@@H]1O
198	CO[C@]1(C)C[C@H](O[C@H]2[C@H](C)[C@@H](O[C@@H]3O[C@H](C)C[C@H](N(C)C)[C@H]3O)[C@](C)(O)C[C@@H](C)CN(C)C(=O)C[C@@H](Cc3ccc(NC(=O)[C@H](Cc4ccccc4Cl)NC(=O)Cc4ccccc4F)cc3)NC(=O)[C@H](C(C)C)NC(=O)[C@@H]2C)O[C@@H](C)[C@@H]1O
1090	CO[C@]1(C)C[C@H](O[C@H]2[C@H](C)[C@@H](O[C@@H]3O[C@H](C)C[C@H](N(C)C)[C@H]3O)[C@](C)(O)C[C@@H](C)CN(C)C(=O)C[C@@H](Cc3ccc(NC(=O)[C@H](Cc4ccccc4Cl)NC(=O)COc4ccccc4)cc3)NC(=O)[C@H](C(C)C)NC(=O)[C@@H]2C)O[C@@H](C)[C@@H]1O
77	CO[C@]1(C)C[C@H](O[C@H]2[C@H](C)[C@@H](O[C@@H]3O[C@H](C)C[C@H](N(C)C)[C@H]3O)[C@](C)(O)C[C@@H](C)CN(C)C(=O)C[C@@H](Cc3ccc(NC(=O)[C@H](Cc4ccccc4Cl)NC(=O)Cc4cccc(C)c4)cc3)NC(=O)[C@H](C(C)C)NC(=O)[C@@H]2C)O[C@@H](C)[C@@H]1O
488	CO[C@]1(C)C[C@H](O[C@H]2[C@H](C)[C@@H](O[C@@H]3O[C@H](C)C[C@H](N(C)C)[C@H]3O)[C@](C)(O)C[C@@H](C)CN(C)C(=O)C[C@@H](Cc3ccc(NC(=O)[C@H](Cc4ccccc4C)NC(=O)Cc4ccccc4)cc3)NC(=O)[C@H](C(C)C)NC(=O)[C@@H]2C)O[C@@H](C)[C@@H]1O
2900	CO[C@]1(C)C[C@H](O[C@H]2[C@H](C)[C@@H](O[C@@H]3O[C@H](C)C[C@H](N(C)C)[C@H]3O)[C@](C)(O)C[C@@H](C)CN(C)C(=O)C[C@@H](Cc3ccc(NC(=O)[C@H](Cc4ccccc4Cl)NC(=O)Cc4ccccc4)cc3)NC(=O)[C@H](C(C)C)CNC(=O)[C@@H]2C)O[C@@H](C)[C@@H]1O
573	CO[C@]1(C)C[C@H](O[C@H]2[C@H](C)[C@@H](O[C@@H]3O[C@H](C)C[C@H](N(C)C)[C@H]3O)[C@](C)(O)C[C@@H](C)CN(C)C(=O)C[C@@H](Cc3ccc(NC(=O)[C@H](Cc4ccccc4Cl)NC(=O)Cc4ccc(F)cc4)cc3)NC(=O)[C@H](C(C)C)NC(=O)[C@@H]2C)O[C@@H](C)[C@@H]1O
2600	CC[C@H](C)[C@@H]1NC(=O)[C@H](C)[C@@H](O[C@H]2C[C@@](C)(OC)[C@@H](O)[C@H](C)O2)[C@H](C)[C@@H](O[C@@H]2O[C@H](C)C[C@H](N(C)C)[C@H]2O)[C@](C)(O)C[C@@H](C)CN(C)C(=O)C[C@@H](Cc2ccc(NC(=O)[C@H](Cc3ccccc3Cl)NC(=O)Cc3ccccc3)cc2)NC1=O
12600	CO[C@]1(C)C[C@H](O[C@H]2[C@H](C)[C@@H](O[C@@H]3O[C@H](C)C[C@H](N(C)C)[C@H]3O)[C@](C)(O)C[C@@H](C)CN(C)C(=O)C[C@@H](Cc3ccc(NC(=O)[C@H](Cc4ccccc4Cl)NC(=O)Cc4ccccc4)cc3)NC(=O)[C@H](CC(C)C)NC(=O)[C@@H]2C)O[C@@H](C)[C@@H]1O
> 30000	CO[C@]1(C)C[C@H](O[C@H]2[C@H](C)[C@@H](O[C@@H]3O[C@H](C)C[C@H](N(C)C)[C@H]3O)[C@](C)(O)C[C@@H](C)CN(C)C(=O)C[C@H](Cc3ccc(NC(=O)[C@H](Cc4ccccc4Cl)NC(=O)Cc4ccccc4)cc3)NC(=O)[C@H](C(C)C)NC(=O)[C@@H]2C)O[C@@H](C)[C@@H]1O
1600	CO[C@]1(C)C[C@H](O[C@H]2[C@H](C)[C@@H](O[C@@H]3O[C@H](C)C[C@H](N(C)C)[C@H]3O)[C@](C)(O)C[C@@H](C)CN(C)C(=O)C[C@@H](Cc3ccc(NC(=O)[C@H](Cc4ccccc4Cl)NC(=O)Cc4cccc(S(C)(=O)=O)c4)cc3)NC(=O)[C@H](C(C)C)NC(=O)[C@@H]2C)O[C@@H](C)[C@@H]1O
> 30000	CO[C@]1(C)C[C@H](O[C@H]2[C@H](C)[C@@H](O[C@@H]3O[C@H](C)C[C@H](N(C)C)[C@H]3O)[C@](C)(O)C[C@@H](C)CN(C)C(=O)[C@H](C(C)C)NC(=O)C[C@H](Cc3ccc(NC(=O)[C@H](Cc4ccccc4Cl)NC(=O)Cc4ccccc4)cc3)NC(=O)[C@@H]2C)O[C@@H](C)[C@@H]1O
> 30000	CO[C@]1(C)C[C@H](O[C@H]2[C@H](C)[C@@H](O[C@@H]3O[C@H](C)C[C@H](N(C)C)[C@H]3O)[C@](C)(O)C[C@@H](C)CN(C)C(=O)[C@@H](C(C)C)NC(=O)C[C@@H](Cc3ccc(NC(=O)[C@H](Cc4ccccc4Cl)NC(=O)Cc4ccccc4)cc3)NC(=O)[C@@H]2C)O[C@@H](C)[C@@H]1O
> 30000	CO[C@]1(C)C[C@H](O[C@H]2[C@H](C)[C@@H](O[C@@H]3O[C@H](C)C[C@H](N(C)C)[C@H]3O)[C@](C)(O)C[C@@H](C)CN(C)C(=O)C[C@@H](Cc3ccc(NC(=O)[C@H](Cc4ccccc4Cl)NC(=O)Cc4ccccc4)cc3)NC(=O)[C@@H](C)NC(=O)[C@@H]2C)O[C@@H](C)[C@@H]1O
